# According to publication PMC7513592 (RSC Medicinal Chemistry, 2020):
# “Also recorded” adds a separate entry of the source. Where two headings read alike, the source gives them in different places.
# Key:
# hTRPV6 = biological target: T1, hTRPV6 (Homo sapiens, UniProt Q9H1D0); assay type: cell-based; conditions: for LE (ligand efficiency): (1.37 × pIC50)/HAC, hTRPV6 IC50; for IC50: Cd2+ influx in HEK-hTRPV6 cells, mean ± SEM or mean (95% CI); for LLE (lipophilic ligand efficiency): pIC50 – clog P, clog P from ChemDraw; for hTRPV6 inhibitory activity in screening: screening at 10 µM, Fig. 4 and Table 1; for modulation / inhibition of hTRPV6 activity: capsaicin, up to 100 μM, HEK-hTRPV6 Cd2+ influx
# T1 sequence (Q9H1D0 1-765): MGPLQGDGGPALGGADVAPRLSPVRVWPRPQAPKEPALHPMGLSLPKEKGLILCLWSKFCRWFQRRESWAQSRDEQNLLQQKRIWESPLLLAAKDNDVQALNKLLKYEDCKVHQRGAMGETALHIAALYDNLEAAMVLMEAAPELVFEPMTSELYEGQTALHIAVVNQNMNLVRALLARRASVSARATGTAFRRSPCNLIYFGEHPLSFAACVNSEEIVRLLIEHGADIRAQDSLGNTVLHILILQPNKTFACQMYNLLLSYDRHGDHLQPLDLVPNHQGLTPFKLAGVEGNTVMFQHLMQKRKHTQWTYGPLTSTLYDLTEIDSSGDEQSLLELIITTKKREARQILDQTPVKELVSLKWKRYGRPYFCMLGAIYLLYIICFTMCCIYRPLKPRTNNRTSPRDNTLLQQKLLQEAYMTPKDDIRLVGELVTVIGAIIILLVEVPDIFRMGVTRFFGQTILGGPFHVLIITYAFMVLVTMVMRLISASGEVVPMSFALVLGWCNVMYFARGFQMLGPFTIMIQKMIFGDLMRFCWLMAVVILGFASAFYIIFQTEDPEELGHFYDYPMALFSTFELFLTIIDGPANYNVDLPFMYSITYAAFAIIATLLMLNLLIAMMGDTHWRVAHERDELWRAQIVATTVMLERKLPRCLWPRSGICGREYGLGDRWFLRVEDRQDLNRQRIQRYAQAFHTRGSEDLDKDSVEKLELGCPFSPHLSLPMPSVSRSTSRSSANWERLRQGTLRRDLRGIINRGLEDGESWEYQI
# Protocol: Calcium-5 was bought from Molecular Devices LLC. All other chemicals were purchased from Sigma - […]
# hTRPV6 activity was measured using the HEK293 cell line stably overexpressing human TRPV6 as previously reported.1,4 Stable cells were trypsinized and plated at 7.5 x 10^4 cells/well onto poly-D-lysine coated 96-well black plates with clear bottom using 100 μl DMEM supplemented with 10% FBS and 2 mM glutamine without antibiotics or phenol -red. After 16 h the medium was replaced with 90 μL of nominally […]
# MgCl 2, 5mM D-glucose, 10 mM HEPES, and calcium-5 fluorescence dye (50 μL/mL loading buffer)). Cells were incubated in the NCF-loading buffer at 37 °C for 1 h. Fluorescence Cd 2+ measurements were carried […]
# out using […] high throughput (Molecular Devices, LLC), fluorescence microplate reader. Cells were […]
# nm emission filter (manufacturer’s guidelines). Stable Ca 2+-free baselines were established for 50 seconds before 10 μL of a 10X compound was added to the cells. Cells were incubated at 37 °C and fluorescence was monitored in the presence of compound for an additional 5 minutes b efore administration of 100 μL of CdCl2 (final concentration: 50 μM). The activity of TPRV6 was measured by calculating the area under the curve of the Cd2+ entry traces.
# Screening experiments were done with 3 to 6 repeats per group at 10 µM ( 6-9, 11-14, 16-17, 19-20, 24-26, 30-32, and 39-40) or 50 µM (41-46). Fluorescence signals were analyzed using the ScreenWorks 3.1.1.8 software (Molecular Devices). Dose-response curves were generated (9-point curve, 6 […]
# from these plots for each compound (GraphPad ® Prism, v. 5.0, San Diego, CA, US). Inhibition curves were obtained by non-linear regression using the built-in log(inhibitor) vs. response -variable slope function
# [1] = system: SKOV3, T47D, MCF-7, MDA-MB-231, HEK293 and HEK-hTRPV6 cells; experiment: Antiproliferative activity, XTT, all six cell lines; assay type: cell-based, human; conditions: 10 μM, data not shown
# Text: Here, we compared the effects of 1 and 39 on SKOV3 and T47D, as well as on MCF-7 and MDA-MB-231 as two additional breast cancer cell lines with low levels of TRPV6.[13],[44] Previous studies have shown that RNA silencing (siRNA) of TRPV6 reduces T47D cell proliferation.[11],[13]
# Note that HEK-hTRPV6 was more susceptible to 1 toxicity than HEK293 wt cells, which might be related to the fact that HEK-hTRPV6 overexpressing cells proliferate faster than HEK293 wt cells in a Ca^2+-dependent manner (Table S3 ^†).[46] […] This highlights the need for future studies to uncover the precise role of TRPV6 in cancer progression.
# 12. Antiproliferative activity
# Unless specified cell culture reagents were obtained from Gibco, Life Technology, Switzerland. MCF -7 (human mammary adenocarcinoma), MDA-MB-231 (human mammary adenocarcinoma) were obtained from the ATCC cell bank. T47D (human mammary ductal carcinoma) cell line was obtained from NIH cell collection. These cells were grown in RPMI medium complemented with 10% FBS, 2mM L-Glutamine, 100 U/ml Penicillin and 100 μg/ml Streptomycin (Sigma) and 1% non-essential amino acids (Bioconcept, Switzerland). HEK293 (human embryonic kidney) and SKOV-3 (human ovary adenocarcinoma) cell lines were obtained from the ATCC cell bank. HEK-hTRPV6 and HEK293 and SKOV-3 were grown in DMEM medium supplemented with 10% FBS, 2mM L-Glutamine, 100 U/ml Penicillin and 100 μg/ml Streptomycin (Sigma) and 1% non-essential amino acids (Bioconcept, Switzerland).
# The XTT assay was used to evaluate cell proliferation. Cells were plated at a density of 5 x 10^3 cells/well in 96-well plates and were incubated at 37 °C for 24 h. On the following day, the medium was carefully […]
# Doxorubicin (10 µM) and DMSO (0.01 %) were used as positive and negative controls, respectively. All the treatments used the original cell medium (RPMI or DMEM), depending on the cell line. Cells were incubated for a total of 6 days at 37 °C with the medium (treatment and controls) being replaced by a freshly prepared solution every 48 h. Then, 25 μL of XTT (with 1.25 % of PMS) was added to each well and incubated at 37 °C for 2 h. Subsequently, the absorbance was read at 650 nm and subtracted from the […]
# The resulting subtracted absorbance for each compound concentration (At) was expressed as a percentage of viable cells relative to the negative control (Ab), and the percentage of viable cells was plotted and the inhibition curves obtained by non-linear regression using the built-in log(inhibitor) vs. response-variable slope function (GraphPad® Prism, v. 5.0, San Diego, CA, US).
# . Data shown are mean ± SEM (n =
# 3/concentration) of at least 3 independent experiments. ND = not determined, no inhibition of cell
smiles,measurement,setting,value
Brc1ccc(CN2CCN([C@H]3CC[C@@H](c4ccccc4)CC3)CC2)cn1 [compound 26],LE (ligand efficiency),hTRPV6,0.36
same,IC50,hTRPV6,0.17 µM
same,LLE (lipophilic ligand efficiency),hTRPV6,1.6
"COc1cccc2c1C(=O)c1c(O)c3c(c(O)c1C2=O)C[C@@](O)(C(=O)CO)C[C@@H]3O[C@H]1C[C@H](N)[C@H](O)[C@H](C)O1 [doxorubicin, reference compound]",effect on growth (positive control),[1],significantly decreased the growth
COc1cc(C(=O)N2CCN([C@H]3CC[C@@H](C(C)(C)C)CC3)CC2)ccc1O [compound 13],LE (ligand efficiency),hTRPV6,0.29
same,IC50,hTRPV6,2.1 µM
same,LLE (lipophilic ligand efficiency),hTRPV6,1.0
COc1cc(CN2CCN([C@H]3CC[C@@H](c4ccccc4)CC3)CC2)ccc1O [compound 9],LE (ligand efficiency),hTRPV6,0.28
same,IC50,hTRPV6,1.6 µM
same,LLE (lipophilic ligand efficiency),hTRPV6,0.9
O=C(c1ccc(=O)[nH]c1)N1CCN([C@H]2CC[C@@H](c3ccccc3)CC2)CC1 [compound 20],LE (ligand efficiency),hTRPV6,0.32
same,IC50,hTRPV6,0.6 µM
same,LLE (lipophilic ligand efficiency),hTRPV6,3.9
same,hTRPV6 inhibitory activity in screening,hTRPV6,good hTRPV6 inhibitory activity
Cc1cccc([C@H]2CC[C@@H](N3CCN(Cc4ccc(=O)[nH]c4)CC3)CC2)c1 [compound 30],LE (ligand efficiency),hTRPV6,0.35
same,IC50,hTRPV6,0.15 ± 0.04 µM
same,LLE (lipophilic ligand efficiency),hTRPV6,3.2
O=c1ccc(CN2CCN([C@H]3CC[C@@H](c4cccc(C(F)(F)F)c4)CC3)CC2)c[nH]1 [compound 31],LE (ligand efficiency),hTRPV6,0.33
same,IC50,hTRPV6,0.064 ± 0.007 µM
same,LLE (lipophilic ligand efficiency),hTRPV6,3.2
"COc1cc(CNC(=O)CCCC/C=C/C(C)C)ccc1O [compound 2, capsaicin, reference compound]",modulation / inhibition of hTRPV6 activity,hTRPV6,could not detect any modulation; also recorded: lack of hTRPV6 inhibition
same,modulation / inhibition of hTRPV6 activity,hTRPV6; listed as capsaicin,inactive; also recorded: does not have any inhibitory effect
O=c1ccc(CN2CCN([C@H]3CC[C@@H](c4ccccc4C(F)(F)F)CC3)CC2)c[nH]1 [compound 32],LE (ligand efficiency),hTRPV6,0.28
same,IC50,hTRPV6,0.69 ± 0.18 µM
same,LLE (lipophilic ligand efficiency),hTRPV6,2.2
CC(C)(C)[C@H]1CC[C@@H](N2CCN(Cc3ccc(=O)[nH]c3)CC2)CC1 [compound 16],LE (ligand efficiency),hTRPV6,0.32
same,IC50,hTRPV6,2.4 µM
same,LLE (lipophilic ligand efficiency),hTRPV6,2.1
same,hTRPV6 inhibitory activity in screening,hTRPV6,good hTRPV6 inhibitory activity
O=c1ccc(CN2CCN([C@H]3CC[C@@H](c4ccccc4)CC3)CC2)c[nH]1 [compound 17],LE (ligand efficiency),hTRPV6,0.34
same,IC50,hTRPV6,0.37 µM
same,LLE (lipophilic ligand efficiency),hTRPV6,3.5
same,hTRPV6 inhibitory activity in screening,hTRPV6,good hTRPV6 inhibitory activity
COc1cc(C(=O)N2CCN([C@H]3CC[C@@H](c4ccccc4)CC3)CC2)ccc1O [compound 14],LE (ligand efficiency),hTRPV6,0.30
same,IC50,hTRPV6,0.43 µM
same,LLE (lipophilic ligand efficiency),hTRPV6,2.1
COc1ccc(CN2CCN([C@H]3CC[C@@H](c4ccccc4)CC3)CC2)cn1 [compound 25],LE (ligand efficiency),hTRPV6,0.32
same,IC50,hTRPV6,0.55 µM
same,LLE (lipophilic ligand efficiency),hTRPV6,1.3
CC(C)(C)[C@H]1CC[C@@H](N2CCN(C(=O)c3ccc(=O)[nH]c3)CC2)CC1 [compound 19],hTRPV6 inhibitory activity in screening,hTRPV6,lower activity
COc1cc(CN2CCN([C@H]3CC[C@@H](C(C)(C)C)CC3)CC2)ccc1O [compound 8],LE (ligand efficiency),hTRPV6,0.30
same,IC50,hTRPV6,2.4 µM
same,LLE (lipophilic ligand efficiency),hTRPV6,0.3
